{
  "source": "patent US20190255144A1",
  "about": "“SPECIFIC OLIGOPEPTIDES AS ANTI-ANGIOGENIC DRUGS” (NEURONAX, priority 2014, published 2019)",
  "key": {"[1]": {"system": "chorioallantoic membrane (CAM) vascularization", "assay": "Treatments on the chorioallantoic membrane (CAM), fluorescein angiography", "type": "in vivo, chicken embryo", "conditions": "impregnated sponge on CAM at ED9; oligopeptide 250 μg/mL (9 hours), VEGF 10 ng/mL; listed as oligopeptide according to the invention", "text": "In fact, TSP-1 is known for inducing the apoptosis of endothelial cells. […] It is also a decisive process under certain physiological and pathological conditions (cancers in particular). This mechanism is controlled by numerous factors having either an inhibitor potential or an activator. So as to evaluate the main properties of these in vivo factors, the most common model is the CAM (chorioallantoic membrane) model from the chicken embryo (Ribatti et al., 2000). It offers the advantage of making it possible to test the pro- or anti-angiogenic factors during an active angiogenesis phase between the embryonic stages 4j and 10j. The major effects of the various molecules can therefore be evaluated in vivo. The model of the CAM can also be used in experimental tumor development. The grafting of human cancer cells onto the surface of the CAM is carried out in the 9-day embryonic stage. Three days after the grafting at ED12, the formation of a tumor is visible at the surface of the CAM. The latter can be treated topically during the 48 hours that follow this stage, and the tumors are sampled at ED14j. The fertilized eggs (Haas Poultry Farm, Strasbourg, France) are kept for 24 hours at 18° C. before the incubation is started up. […] The embryonic stages are determined from tables of Hamburger and Hamilton (H and H, 1951). […]"}, "HUVECs or HBMECs": {"system": "HUVECs or HBMECs", "assay": "Proliferation of endothelial cells", "type": "cell-based", "conditions": "in vitro"}, "Toxicity on injection": {"assay": "Toxicity on injection", "type": "in vivo", "conditions": "injections of 20 mg/kg"}},
  "note": "Entries after “also recorded” stand apart in the source; their conditions may differ.",
  "data": [
    {"substance": "—W—S-G-W—S—S—C—S—R—S—C-G- (WSGWSSCSRSCG; Oligopeptide derived from SCO-Spondin) [NX]", "values": [
      {"measurement": "Vascularization / microvascularization of the CAM (in words)", "setting": "[1]", "value": "inhibition of vascularization; also recorded: comparable to that of the Bevacizumab"},
      {"measurement": "Proliferation of HUVECs or HBMECs", "setting": "HUVECs or HBMECs", "value": "does not modulate the proliferation"},
      {"measurement": "Toxicity", "setting": "Toxicity on injection", "value": "no toxicity"}
    ]}
  ]
}
